Results on 1 molecule are retold here after patent US11453689B2, “3-pyrrolidine-indole derivatives as serotonergic psychedelic agents for the treatment of CNS disorders” (Mindset Pharma Inc., priority 2020, dated 2022).

This test has as its system head-twitch response (HTR) in male C57BL6 mice. Kind of test: Mouse head-twitch response (HTR). The format is in vivo. To be noted: M100907 0.5 mg/kg IP before I-2 10 mg/kg SC. On the procedure:
Male, C57BL/6J mice (body weight range 20-30 g) were dosed with the appropriate dose of test article, and following a 1-minute pre-treatment time, placed in individual observation chambers. Animals were visually assessed for the incidence head twitches continuously over a 1 hr period. Head twitches were defined as a rapid jerk of the head which was not elicited by an external tactile stimulus (Come and Pickering, Psychopharmacologia, 1967, 11(1): 65-78). Each head twitch was individually counted by a trained observer, and the data expressed as the mean±SEM of 6-10 mice per group. Mice were used in a single experiment only.
The effect of various doses of exemplary compound of Formula I, I-2, on head-twitch response (HTR) in male C57BL6 mice were measured. The mice were treated with compound I-2 (0.03-10 mg/kg, SC) by SC route (N=6 mice/dose), and the total number of head twitches were recorded over a 1h period. Data is expressed as mean±SEM. The induction of head twitches elicited by 5-HT2A receptor agonists is believed to represent a behavioural proxy of their psychedelic effects.
To evaluate the involvement of 5-HT2A receptor on the HTR induced by exemplary compounds of Formula I, mice were pretreated with the selective 5-HT2AR antagonist M100907 (also known as volinanserin) prior to the administration of exemplary compounds of Formula I, for example, 1-2 (10 mg/kg SC).

Turning to `[2H]C([2H])([2H])N1CCC[C@@H]1Cc1c[nH]c2cccc(O)c12` [Compound I-2, (R)-3-((1-(methyl-d3)pyrrolidin-2-yl)methyl)-1H-indol-4-ol], the “effect of I-2 on HTR after pretreatment with 5-HT2A antagonist M100907” value is listed as “completely blocked”.
